According to PubChem BioAssay (NCI):
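Grown in 96-well plates, cells were treated for 48 hours with each compound at five concentrations. Insufficient inhibition: endpoint recorded as highest concentration tested. GI50: concentration for 50% inhibition of growth. The concentration for full growth arrest is given as TGI.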

Tests used:
Assay in all cases: NCI anticancer screen, dose series, 48 h
A549 NSCLC = system: A549 NSCLC
ACHN renal = system: ACHN renal
HCC-2998 colon = system: HCC-2998 colon
HCT-116 colon = system: HCT-116 colon
MDA-MB-231 breast = system: MDA-MB-231 breast
MDA-MB-435 = system: MDA-MB-435
NCI-H226 lung = system: NCI-H226 lung
PC-3 prostate = system: PC-3 prostate
RPMI-8226 leukemia = system: RPMI-8226 leukemia
SK-MEL-2 melanoma = system: SK-MEL-2 melanoma

SMILES | GI50 (A549 NSCLC) | TGI (A549 NSCLC) | GI50 (ACHN renal) | TGI (ACHN renal) | GI50 (HCC-2998 colon) | TGI (HCC-2998 colon) | GI50 (HCT-116 colon) | TGI (HCT-116 colon) | GI50 (MDA-MB-231 breast) | TGI (MDA-MB-231 breast) | GI50 (MDA-MB-435) | TGI (MDA-MB-435) | GI50 (NCI-H226 lung) | TGI (NCI-H226 lung) | GI50 (PC-3 prostate) | TGI (PC-3 prostate) | GI50 (RPMI-8226 leukemia) | TGI (RPMI-8226 leukemia) | GI50 (SK-MEL-2 melanoma) | TGI (SK-MEL-2 melanoma)
Cc1cccc2c(N=Nc3ccc(S(N)(=O)=O)cc3)c(O)[nH]c12 | > 25 µM | > 25 µM | > 25 µM | > 25 µM | > 25 µM | > 25 µM | > 25 µM | > 25 µM | > 25 µM | > 25 µM | > 25 µM | > 25 µM | > 25 µM | > 25 µM | > 25 µM | > 25 µM | > 25 µM | > 25 µM | > 25 µM | > 25 µM
COc1cc(C#N)cc(OC)c1OCCOCCOc1c(OC)cc(C#N)cc1OC | > 100 µM | > 100 µM | > 100 µM | > 100 µM | > 100 µM | > 100 µM | > 100 µM | > 100 µM | 88.9 µM | > 100 µM | > 100 µM | > 100 µM | 81.2 µM | > 100 µM | 31.9 µM | > 100 µM | 29.9 µM | > 100 µM | > 100 µM | > 100 µM
O=c1cc(-c2ccc(Cl)cc2)[nH]c2ncccc12 |  | > 100 µM |  | > 100 µM |  | > 100 µM | 32.1 µM | > 100 µM |  | > 100 µM | 5.96 µM | 22.4 µM |  | > 100 µM | 47.6 µM | > 100 µM |  | 95 µM |  | > 100 µM
O=C(Nc1n[nH]c2nc(-c3ccco3)ccc12)C1CC1 | > 25 µM | > 25 µM | > 25 µM | > 25 µM | > 25 µM | > 25 µM | > 25 µM | > 25 µM | > 25 µM | > 25 µM | > 25 µM | > 25 µM | > 25 µM | > 25 µM | > 25 µM | > 25 µM | > 25 µM | > 25 µM | > 25 µM | > 25 µM
CN(C)CCCN(c1nc(C(Cl)(Cl)Cl)ns1)c1nc(C(Cl)(Cl)Cl)ns1 | 1.63 µM | 3.78 µM | 1.77 µM | 3.53 µM | 1.69 µM | 3.31 µM | 1.66 µM | 3.34 µM | 1.19 µM | 2.6 µM | 2.05 µM | 4.54 µM | 1.72 µM | 3.42 µM | 1.94 µM | 5.14 µM | 2.19 µM | 5.35 µM | 1.84 µM | 3.5 µM
CCCc1cc2cc(-n3nc(C)c4c3CC(C)(C)CC4=O)cc(NC3CCC(O)CC3)c2c(=O)[nH]1 (stereo not drawn) | 0.215 µM | > 100 µM | 0.0712 µM | > 100 µM | 0.144 µM | > 100 µM | 0.0634 µM | > 100 µM | 0.192 µM | 3.76 µM | 0.0812 µM | > 100 µM | 5.36 µM | > 100 µM | 0.423 µM | > 100 µM | 0.465 µM | 14.9 µM | 0.441 µM | > 100 µM
COc1ccc2c(c1)CCc1c(-c3noc4c3CCc3cc(OC)ccc3-4)noc1-2 |  | > 100 µM |  | > 100 µM |  | > 100 µM |  | > 100 µM |  | > 100 µM |  | > 100 µM |  | > 100 µM |  | > 100 µM |  | > 100 µM |  | > 100 µM
Cn1ncc2c(/N=C/c3cccs3)[nH]c(=S)nc21 | 47.4 µM | > 100 µM | 37.6 µM | > 80 µM | 32.9 µM | > 100 µM | 33.9 µM | 98 µM | 20.3 µM | > 67.5 µM | 29.9 µM | > 72.2 µM | 10.5 µM | 40.9 µM | 40.7 µM | > 100 µM | 31.6 µM | > 100 µM | > 64.5 µM | > 100 µM
CN[C@]12CC3(C=CC(=O)C=C3)O[C@@]1(Cc1ccc(OC)cc1)N(C)C(=O)N2 | 3.11 µM | 14 µM | 1.67 µM | 4 µM | 1.93 µM | 3.61 µM | 0.812 µM | 7.98 µM | 4.2 µM | 15.1 µM | 2.57 µM | 8.64 µM | 3.46 µM | 15.9 µM | 0.695 µM | 4.31 µM | 1.63 µM | 3.32 µM | 2.96 µM | 10.9 µM
O=C1/C(=C\C(Cl)=C/c2ccc([N+](=O)[O-])cc2)SC(=S)N1CCc1ccc(O)cc1 | 1.6 µM | 8.79 µM | 0.249 µM | 0.584 µM | 0.392 µM | 1.42 µM | 0.201 µM | 0.455 µM | 0.449 µM | 2.03 µM | 0.552 µM | 1.95 µM | 1.35 µM | 3.48 µM | 0.269 µM | 0.845 µM | 0.268 µM | 0.884 µM | 2.01 µM | 4.37 µM
COc1cc(/C=C2\CN(C)C/C(=C\c3cc(OC)c(OC)c(OC)c3)C2=O)cc(OC)c1OC | 0.37 µM | 1.59 µM | 0.2 µM | 0.387 µM | 0.366 µM | 1.22 µM | 0.154 µM | 0.335 µM | 0.336 µM | 1.03 µM | 0.287 µM | 1.02 µM | 0.239 µM | 0.588 µM | 1.32 µM | 4.52 µM | 0.266 µM | 0.841 µM | 0.305 µM | 0.959 µM
COc1cc(/C=C/C(=O)c2ccc(Nc3ncnc4ccccc34)cc2)cc(OC)c1 | 3.2 µM | 14.4 µM | 13.9 µM | 63.9 µM | 1.79 µM | 3.38 µM | 0.346 µM | 1.17 µM | 13.5 µM | 49.1 µM | 1.8 µM | 4.14 µM | 2.45 µM | 8.91 µM | 3.36 µM | 31.6 µM | 0.227 µM | 0.715 µM | 16.2 µM | 57.7 µM
CCOC(=O)/C(=C/c1ccc([N+](=O)[O-])cc1)C(=O)c1ccccc1 | 6.28 µM | 20.6 µM | 2.03 µM | 4.35 µM | 1.87 µM | 3.43 µM | 2.33 µM | 5.3 µM | 2.34 µM | 5.24 µM | 2.23 µM | 5.37 µM | 2.57 µM | 6.45 µM | 2.46 µM | 6.11 µM | 2.34 µM | 6.07 µM | 2.24 µM | 5.15 µM
COc1ccc(-c2cnc3ccnn3c2-c2cc(OC)c(OC)c(OC)c2)cc1 | 3.85 µM | > 100 µM | 6.19 µM | > 100 µM | 3.79 µM | > 100 µM | 2.97 µM | > 100 µM | 4.3 µM | 65.7 µM | 0.282 µM | 0.976 µM | 8.13 µM | > 100 µM | 2 µM | > 100 µM | 4.14 µM | > 100 µM | 3.94 µM | > 100 µM
